Data published in patent US7507739B2, “6-[(substituted)phenyl]triazolopyrimidines as anticancer agents” (Wyeth, priority 2003, dated 2009).
Marks after values point to notes of the source that are not given here.

How the values were obtained:
Format in all cases: in vivo, athymic mice
LOX Human Melanoma = assay: Human tumor xenograft test, LOX; conditions: for tumor growth inhibition (activity call): LOX melanoma; for T/C on day 0 / T/C on day 7 / T/C on day 13: LOX, days 1, 5, 9, 13
Procedure: (§1) The ability of compounds of this invention to inhibit tumor growth in animals is studied in the athymic mouse xenograft standard pharmacological test. Female nu/nu mice in an outbred albino background are obtained from Charles River Laboratories (Wilmington, Mass.). Animals are injected subcutaneously on the flank with the desired tumor cell suspension. Several days later, mice with tumors of approximately 150 mm^3 are selected from those injected (staged) and randomly distributed into groups of 5-10. The day of staging is called day 0. Compounds of the invention, usually formulated in saline (exceptions are noted in tables), are administered to animals by intravenous injection or oral gavage on various schedules starting on day 0 or 1, as noted in the tables. The control group in each experiment is dosed with vehicle on the same schedule. Tumor size is measured every 3-7 days with calipers in two orthogonal dimensions, and tumor volume is calculated from the formula volume=[(length×width^2)/2].
(§2) Tumor/Control (T/C) is obtained by dividing the mean tumor volume of the treated group by the mean tumor volume of the control group on each measurement day. A treatment dose is defined as active if it produced a statistically significant T/C of 0.50 or less. A p value≦0.05, determined by one-side Student's t-test, is required for statistical significance. A treatment dose is defined as toxic if more than 10% of the animals died from a compound-related toxicity.

[1] = tested on: U87-MG Human Glioblastoma; assay: Human tumor xenograft test, U87-MG; conditions: for T/C on day 0 / T/C on day 3 / T/C on day 7 / T/C on day 10 / T/C on day 13 / T/C on day 17: U87-MG, days 1, 5, 9
Procedure: as §1, §2

[2] = tested on: A549 Human Non-Small Cell Lung Carcinoma; assay: Human tumor xenograft test, A549; conditions: days 1, 5, 9, 13, 17, 21, 25, 29
Procedure: as §1, §2

[3] = tested on: LoVo Human Colon Carcinoma; assay: Human tumor xenograft test, LoVo; conditions: for T/C on day 0 / T/C on day 7 / T/C on day 14 / T/C on day 21 / T/C on day 28 / T/C on day 35: days 1, 7, 14
Procedure: as §1, §2

[4] = 1 mg/kg intravenously on days 1, 5, 9, and 13
[5] = 6 and 3 mg/kg intravenously on days 1, 5, 9, and 13

With `C[C@H](Nc1c(-c2c(F)cc(OCCCN(C)C)cc2F)c(Cl)nc2ncnn12)C(F)(F)F.Cl` [Example 1a, 5-chloro-6-{4-[3-(dimethylamino)propoxy]-2,6-difluorophenyl}-N-[(1S)-2,2,2-trifluoro-1-methylethyl][1,2,4]triazolo[1,5-a]pyrimidin-7-amine hydrogen chloride Salt] the “tumor growth inhibition (activity call)” value (LOX Human Melanoma; [4]) was “not at 1 mg/kg”, the “tumor growth inhibition (activity call)” value (LOX Human Melanoma; [5]) was “active” and the “T/C on day 0” value (LOX Human Melanoma; 1 mg/kg IV) was 1.00. For the same compound, the “T/C on day 7” value (LOX Human Melanoma; 1 mg/kg IV) was 0.80, the “T/C on day 13” value (LOX Human Melanoma; 1 mg/kg IV) was 1.02 and the “T/C on day 0” value (LOX Human Melanoma; 3 mg/kg IV) was 1.00. For the same compound, the “T/C on day 7” value (LOX Human Melanoma; 3 mg/kg IV) was 0.13**, the “T/C on day 13” value (LOX Human Melanoma; 3 mg/kg IV) was 0.17* and the “T/C on day 0” value (LOX Human Melanoma; 6 mg/kg IV) was 1.00. The “T/C on day 7” value (LOX Human Melanoma; 6 mg/kg IV) was 0.12** and the “T/C on day 13” value (LOX Human Melanoma; 6 mg/kg IV) was 0.07**.
For `CNCCCOc1cc(F)c(-c2c(Cl)nc3ncnn3c2NCC(F)(F)F)c(F)c1.Cl` [Example 3a, 5-Chloro-6-{2,6-difluoro-4-[3-(methylamino)propoxy]phenyl}-N-(2,2,2-trifluoroethyl)[1,2,4]triazolo[1,5-a]pyrimidin-7-amine hydrogen chloride Salt], the “tumor growth inhibition (activity call)” value (LOX Human Melanoma; [4]) was “not at 1 mg/kg”, the “tumor growth inhibition (activity call)” value (LOX Human Melanoma; [5]) was “active” and the “T/C on day 0” value (LOX Human Melanoma; 1 mg/kg IV) was 1.00. The “T/C on day 7” value (LOX Human Melanoma; 1 mg/kg IV) was 0.77, the “T/C on day 13” value (LOX Human Melanoma; 1 mg/kg IV) was 0.85 and the “T/C on day 0” value (LOX Human Melanoma; 3 mg/kg IV) was 1.00. For the same compound, the “T/C on day 7” value (LOX Human Melanoma; 3 mg/kg IV) was 0.34*, the “T/C on day 13” value (LOX Human Melanoma; 3 mg/kg IV) was 0.38 and the “T/C on day 0” value (LOX Human Melanoma; 6 mg/kg IV) was 1.00. For the same compound, the “T/C on day 7” value (LOX Human Melanoma; 6 mg/kg IV) was 0.22**, the “T/C on day 13” value (LOX Human Melanoma; 6 mg/kg IV) was 0.07** and the “T/C on day 0” value ([1]; 10 mg/kg PO) was 0.99. For the same compound, the “T/C on day 3” value ([1]; 10 mg/kg PO) was 1.08, the “T/C on day 7” value ([1]; 10 mg/kg PO) was 0.85 and the “T/C on day 10” value ([1]; 10 mg/kg PO) was 0.69**. For the same compound, the “T/C on day 13” value ([1]; 10 mg/kg PO) was 0.52**, the “T/C on day 17” value ([1]; 10 mg/kg PO) was 0.51** and the “T/C on day 0” value ([1]; 20 mg/kg PO) was 1.01. The “T/C on day 3” value ([1]; 20 mg/kg PO) was 0.90, the “T/C on day 7” value ([1]; 20 mg/kg PO) was 0.73 and the “T/C on day 10” value ([1]; 20 mg/kg PO) was 0.63**. For the same compound, the “T/C on day 13” value ([1]; 20 mg/kg PO) was 0.42**, the “T/C on day 17” value ([1]; 20 mg/kg PO) was 0.39** and the “T/C on day 0” value ([1]; 40 mg/kg PO) was 1.02. The “T/C on day 3” value ([1]; 40 mg/kg PO) was 0.73, the “T/C on day 7” value ([1]; 40 mg/kg PO) was 0.65** and the “T/C on day 10” value ([1]; 40 mg/kg PO) was 0.48**. For the same compound, the “T/C on day 13” value ([1]; 40 mg/kg PO) was 0.30**, the “T/C on day 17” value ([1]; 40 mg/kg PO) was 0.20** and the “tumor growth inhibition (activity call)” value ([1]; U-87 MG, oral dosing, 40, 20, and 10 mg/kg) was “active”.
For `CN(C)CCCOc1cc(F)c(-c2c(Cl)nc3ncnn3c2NCC(F)(F)F)c(F)c1.Cl` [Example 4a, 5-Chloro-6-{4-[3-(dimethylamino)propoxy]-2,6-difluorophenyl}-N-(2,2,2-trifluoroethyl)[1,2,4]triazolo[1,5-a]pyrimidin-7-amine Hydrogen chloride Salt], the “T/C on day 0” value ([2]; A549, 10 mg/kg IV) was 0.98, the “T/C on day 7” value ([2]; A549, 10 mg/kg IV) was 0.81 and the “T/C on day 14” value ([2]; A549, 10 mg/kg IV) was 0.74. The “T/C on day 21” value ([2]; A549, 10 mg/kg IV) was 0.68, the “T/C on day 27” value ([2]; A549, 10 mg/kg IV) was 0.80 and the “T/C on day 35” value ([2]; A549, 10 mg/kg IV) was 0.79. For the same compound, the “T/C on day 0” value ([2]; A549, 20 mg/kg IV) was 0.99, the “T/C on day 7” value ([2]; A549, 20 mg/kg IV) was 0.86 and the “T/C on day 14” value ([2]; A549, 20 mg/kg IV) was 0.80. The “T/C on day 21” value ([2]; A549, 20 mg/kg IV) was 0.72, the “T/C on day 27” value ([2]; A549, 20 mg/kg IV) was 0.78 and the “T/C on day 35” value ([2]; A549, 20 mg/kg IV) was 0.77. For the same compound, the “T/C on day 0” value ([2]; A549, 40 mg/kg IV) was 0.97, the “T/C on day 7” value ([2]; A549, 40 mg/kg IV) was 0.71 and the “T/C on day 14” value ([2]; A549, 40 mg/kg IV) was 0.53**. For the same compound, the “T/C on day 21” value ([2]; A549, 40 mg/kg IV) was 0.46**, the “T/C on day 27” value ([2]; A549, 40 mg/kg IV) was 0.52** and the “T/C on day 35” value ([2]; A549, 40 mg/kg IV) was 0.47**. For the same compound, the “tumor growth inhibition (activity call)” value (LOX Human Melanoma; [4]) was “not at 1 mg/kg”, the “tumor growth inhibition (activity call)” value (LOX Human Melanoma; [5]) was “active” and the “T/C on day 0” value (LOX Human Melanoma; 1 mg/kg IV) was 1.00. For the same compound, the “T/C on day 7” value (LOX Human Melanoma; 1 mg/kg IV) was 0.80, the “T/C on day 13” value (LOX Human Melanoma; 1 mg/kg IV) was 0.79 and the “T/C on day 0” value (LOX Human Melanoma; 3 mg/kg IV) was 1.00. The “T/C on day 7” value (LOX Human Melanoma; 3 mg/kg IV) was 0.20**, the “T/C on day 13” value (LOX Human Melanoma; 3 mg/kg IV) was 0.19** and the “T/C on day 0” value (LOX Human Melanoma; 6 mg/kg IV) was 1.00. For the same compound, the “T/C on day 7” value (LOX Human Melanoma; 6 mg/kg IV) was 0.21** and the “T/C on day 13” value (LOX Human Melanoma; 6 mg/kg IV) was 0.14**.
`C[C@H](Nc1c(-c2c(F)cc(OCCCO)cc2F)c(Cl)nc2ncnn12)C(F)(F)F` [Example 20, 3-[4-(5-Chloro-7-{[(1S)-2,2,2-trifluoro-1-methylethyl]amino}[1,2,4]triazolo[1,5-a]pyrimidin-6-yl)-3,5-difluorophenoxy]propan-1-ol] was tested, and the “T/C on day 0” value ([3]; 30 mg/kg PO) was 1.00, the “T/C on day 7” value ([3]; 30 mg/kg PO) was 0.37* and the “T/C on day 14” value ([3]; 30 mg/kg PO) was 0.35**. The “T/C on day 21” value ([3]; 30 mg/kg PO) was 0.35, the “T/C on day 28” value ([3]; 30 mg/kg PO) was 0.28 and the “T/C on day 35” value ([3]; 30 mg/kg PO) was 0.35. For the same compound, the “T/C on day 0” value ([3]; 50 mg/kg PO) was 1.00, the “T/C on day 7” value ([3]; 50 mg/kg PO) was 0.27** and the “T/C on day 14” value ([3]; 50 mg/kg PO) was 0.46**. For the same compound, the “T/C on day 21” value ([3]; 50 mg/kg PO) was 0.33**, the “T/C on day 28” value ([3]; 50 mg/kg PO) was 0.29** and the “T/C on day 35” value ([3]; 50 mg/kg PO) was 0.31*. For the same compound, the “tumor growth inhibition (activity call)” value ([3]; orally on days 1, 7 and 14 at 50 and 30 mg/kg) was “active”.
For `CNCCCOc1cc(F)c(-c2c(Cl)nc3ncnn3c2C2CCCCCC2)c(F)c1.O=C(O)C(F)(F)F` [Example 32, 3-[4-(5-Chloro-7-cycloheptyl[1,2,4]triazolo[1,5-a]pyrimidin-6-yl)-3,5-difluorophenoxy]-N-methylpropan-1-amine trifluoroacetic acid salt], the “T/C on day 0” value ([3]; 30 mg/kg PO) was 1.00, the “T/C on day 7” value ([3]; 30 mg/kg PO) was 0.55 and the “T/C on day 14” value ([3]; 30 mg/kg PO) was 0.68. For the same compound, the “T/C on day 21” value ([3]; 30 mg/kg PO) was 0.35, the “T/C on day 28” value ([3]; 30 mg/kg PO) was 0.43 and the “T/C on day 35” value ([3]; 30 mg/kg PO) was 0.53. The “T/C on day 0” value ([3]; 50 mg/kg PO) was 1.00, the “T/C on day 7” value ([3]; 50 mg/kg PO) was 0.41 and the “T/C on day 14” value ([3]; 50 mg/kg PO) was 0.44*. The “T/C on day 21” value ([3]; 50 mg/kg PO) was 0.27*, the “T/C on day 28” value ([3]; 50 mg/kg PO) was 0.31 and the “T/C on day 35” value ([3]; 50 mg/kg PO) was 0.26. The “tumor growth inhibition (activity call)” value ([3]; orally on days 1, 7 and 14 at 50 mg/kg) was “active”.
